Measurements from patent publication US4680285A, “Treatment of malignant tumors with 2-(β-D-ribofuranosylthiazole-4-carboxamide related compounds” (priority 1985, dated 1987).
“Also recorded” adds a separate entry of the source.

Assays:
viruses = details: test viruses; cited from earlier work
[1] = toxicity in tumor bearing animals; assay type: in vivo; details: dosages up to 2000 mg/Kg, toxicity day
Source text: In a host which has been diagnosed as being terminally ill with a malignant tumor excessive amounts beyond any toxicity range might be indicated if there is any probability of cure of the terminally ill host as is commonly practiced in current cancer chemotherapy.

[2] = blood brain barrier crossing after IP injection (Example 12); assay type: in vivo, AKD2 F1 mice; details: inferred from activity on intracranial tumor after IP injection
Source text: (§1) For Example 12, compound 1 was given IP to a group of AKD2 F1 mice which were inflicted by intercranial inoculation with Lewis lung seed cells to establish brain tumors.
(§2) For this test, 32 control animals were used and no control animals survived beyond day eleven with a mean death data of day 9.6 for the controls. Water was used as the drug vehicle. For both the control group and the test group, tumors were induced on day zero with initiation of drug treatment on day one where compound 1 was given once daily for nine days. Test results are expressed as T/C as per example 5.

[3] = system: type 3 parainfluenza virus; details: cited from earlier work
type 3 rhinovirus = details: cited from earlier work
malignant tumors = assay: antitumor activity in vivo (general statements); details: summary statements
[4] = system: type 1 herpes simplex virus; details: cited from earlier work
Lewis lung carcinoma = Lewis lung carcinoma (IV inoculated) in vivo, median survival, 60-day test (Example 10); design: species or system B6 D2 F1 male mice; details: for Treated Group Survival Time (median): assigned 60 at end of test, control 18.4; for Percent Treated Animals/Control Animals: based on assigned 60 days
Source text: For example 10, B6 D2 F1 male mice were used and challenged with Lewis lung carcinoma.
In Example 10, forty control animals were used and ten test animals each at dose levels indicated below in Table 6. For both the control group and the drug treated group, tumors were induced by IV injection on day zero followed by initiating of drug treatment on day one. For example 10 water was used as the drug vehicle.
In both the control group and the drug treated group in Example 10, the animals were inoculated on day zero with a homogenate of 10^6 seed cells of Lewis lung carcinoma. For Example 10, drug treatment was started on day one and compound 1 given once daily for nine days. Day five was utilized as the cut-off date for details attributable to toxicity of the drug. […] Efficacy of treatment was determined by comparing median survival time of drug treated animals with median survival time of the control animals and is expressed as percentage increase of treated animals/control animals (T/C) as per Example 5.
The test period was for sixty days and at the end of the sixty day period all animals surviving in the test groups were evaluated as either cured, no-takes, or tumor survivors as per Example 5 above.
In this example, the drug treated animals were injected IP with the dose level noted in table 6 below. Ten animals were treated at each dose level. No control animals survived beyond day 23 with a median death data of day 18.4. […] Because of this fact, the T/C ratio noted in table 6 below is a constant figure based on assigning survival day rate of sixty to the treated animals and a median death date of 18.4 days to the control animals.

L-1210 lymphoid leukemia = L-1210 lymphoid leukemia in vivo screen, median survival (Example 5); design: species or system CD2 F1 male mice; details: for Percent Treated Animals/Control Animals: >125% positive; for Treated Group Survival Time (median): control 8.5
Source text: As an indicator of reproducible activity, compound 1 of the invention was screened against L-1210 lymphoid leukemia in vivo using CD2 F1 male mice as the testing species. The parameter of efficacy chosen was based upon the median survival time of animals treated with the drug vs. appropriate control group animals. Both drug treated animals and control group animals were inoculated IP with 10^5 seed cells of L-1210 lymphoid leukemia in Ascitic fluid.
One day after tumor inoculation, the drug group of animals was placed on a regimen of treatment of compound 1 at the dose levels as noted below, table 1. The drug treated group of animals was inoculated once daily for five days at the doses noted by IP injection of the test compound appropriately diluted with water.
Day six was chosen as an indication of drug toxicity. […] Death of drug treated animals after day six was, therefore, attributed to tumor deaths and not drug toxicity.
The median death day of the control group was day 8.5. […] A percent of drug treated animals/control animals greater than 125% is taken as positive drug activity.

[5] = system: Lewis lung seed cells (brain tumors); assay: Intracranially inoculated Lewis lung brain tumors in vivo, survival (Example 12); design: species or system AKD2 F1 mice; details: for Treated Group Survival Time: control 9.6
Source text: as §1, §2

virus = details: cited from earlier work
[6] = 100 mg/Kg, ten animals, sixty days

Structure (SMILES): NC(=O)c1csc([C@@H]2O[C@H](CO)[C@@H](O)[C@H]2O)n1 [Compound 1, 2-β-D-Ribofuranosylthiazole-4-Carboxamide]
- spectrum of in vitro antiviral activity, preliminary (viruses): marginal in vitro activity
- deaths attributed to toxicity [1]: no deaths of the animals were attributed to the toxicity
- crossing of the blood brain barrier [2]: successful crossing of the blood brain barrier; also recorded: successfully crosses the blood brain barrier
- in vitro antiviral activity [3]: only moderate
- in vitro antiviral activity (type 3 rhinovirus): only moderate
- antitumor activity (malignant tumors): effective in vivo antitumor agents
- antitumor activity (malignant tumors; listed as 2-β-D-ribofuranosylthiazole-4-carboxamide): positive antitumor activity; also recorded: significant antitumor activity in vivo
- in vitro antiviral activity [4]: only moderate
- animals surviving the sixty day test period (Lewis lung carcinoma; 25 mg/Kg): all test animals survived
- Treated Group Survival Time (median) (Lewis lung carcinoma; 25 mg/Kg IP once daily x9): 60 days
- Percent Treated Animals/Control Animals (Lewis lung carcinoma; 25 mg/Kg IP once daily x9): 326%
- Treated Group Survival Time (median) (Lewis lung carcinoma; 50 mg/Kg IP once daily x9): 60 days
- Percent Treated Animals/Control Animals (Lewis lung carcinoma; 50 mg/Kg IP once daily x9): 326%
- day of the one death (Lewis lung carcinoma; 50 mg/Kg, ten animals): 47 days
- animals judged as cured (Lewis lung carcinoma; 50 mg/Kg, ten animals, sixty days): nine cures
- Treated Group Survival Time (median) (Lewis lung carcinoma; 100 mg/Kg IP once daily x9): 60 days
- Percent Treated Animals/Control Animals (Lewis lung carcinoma; 100 mg/Kg IP once daily x9): 326%
- day of the one death (Lewis lung carcinoma; 100 mg/Kg, ten animals): 46 days
- animals judged as cured (Lewis lung carcinoma; [6]): eight cures
- tumor survivors (Lewis lung carcinoma; [6]): one tumor survivor
- animals surviving the sixty day test period (Lewis lung carcinoma; 200 mg/Kg): all test animals survived
- Treated Group Survival Time (median) (Lewis lung carcinoma; 200 mg/Kg IP once daily x9): 60 days
- Percent Treated Animals/Control Animals (Lewis lung carcinoma; 200 mg/Kg IP once daily x9): 326%
- animals judged as cured (Lewis lung carcinoma; 200 mg/Kg, ten animals, sixty days): all ten
- animals surviving the sixty day test period (Lewis lung carcinoma; 400 mg/Kg): all test animals survived
- Treated Group Survival Time (median) (Lewis lung carcinoma; 400 mg/Kg IP once daily x9): 60 days
- Percent Treated Animals/Control Animals (Lewis lung carcinoma; 400 mg/Kg IP once daily x9): 326%
- animals judged as cured (Lewis lung carcinoma; 400 mg/Kg, ten animals, sixty days): all ten
- mortality attributable to drug toxicity (Lewis lung carcinoma; 25-400 mg/Kg, day five cut-off): no mortality attributable to drug toxicity
- activity against Lewis lung carcinoma (Lewis lung carcinoma; Example 10): effective antitumor agent; also recorded: active antitumor agent; also recorded: outstanding activity
- median survival time vs control (Lewis lung carcinoma; Example 10): dramatically extended
- DN 2 criteria of the National Cancer Institute (Lewis lung carcinoma; Lewis lung carcinoma): successfully passed
- cures at cessation of the test period (Lewis lung carcinoma; all but one dose level): at least 80%
- cures at cessation of the test period (Lewis lung carcinoma; at two dose levels (200 and 400 mg/Kg)): 100%
- Percent Treated Animals/Control Animals (L-1210 lymphoid leukemia; 12.5 mg/Kg IP once daily x5): 111%
- Treated Group Survival Time (median) (L-1210 lymphoid leukemia; 12.5 mg/Kg IP once daily x5): 9.5 days
- Percent Treated Animals/Control Animals (L-1210 lymphoid leukemia; 25 mg/Kg IP once daily x5): 120%
- Treated Group Survival Time (median) (L-1210 lymphoid leukemia; 25 mg/Kg IP once daily x5): 10.2 days
- Percent Treated Animals/Control Animals (L-1210 lymphoid leukemia; 50 mg/Kg IP once daily x5): 129%
- Treated Group Survival Time (median) (L-1210 lymphoid leukemia; 50 mg/Kg IP once daily x5): 11.0 days
- Percent Treated Animals/Control Animals (L-1210 lymphoid leukemia; 100 mg/Kg IP once daily x5): 149%
- Treated Group Survival Time (median) (L-1210 lymphoid leukemia; 100 mg/Kg IP once daily x5): 12.7 days
- Percent Treated Animals/Control Animals (L-1210 lymphoid leukemia; 200 mg/Kg IP once daily x5): 168%
- Treated Group Survival Time (median) (L-1210 lymphoid leukemia; 200 mg/Kg IP once daily x5): 14.3 days
- survival through day six (drug toxicity) (L-1210 lymphoid leukemia; 12.5-200 mg/Kg IP once daily x5): all drug treated animals survived through day six
- activity in multiple dose assay (L-1210 lymphoid leukemia; T/C >125% taken as positive): positive activity
- median death day vs control (L-1210 lymphoid leukemia; all levels of drug tested): longer at all levels of drug tested
- median death day vs control (L-1210 lymphoid leukemia; greater than 50 mg/Kg): significantly longer
- Percent Treated Animals/Control Animals ([5]; 25.0 mg/Kg IP once daily x9): 172%
- Treated Group Survival Time ([5]; 25.0 mg/Kg IP once daily x9): 16.6 days
- Percent Treated Animals/Control Animals ([5]; 37.5 mg/Kg IP once daily x9): 166%
- Treated Group Survival Time ([5]; 37.5 mg/Kg IP once daily x9): 16.0 days
- Percent Treated Animals/Control Animals ([5]; 75 mg/Kg IP once daily x9): 185%
- Treated Group Survival Time ([5]; 75 mg/Kg IP once daily x9): 19.0 days
- Percent Treated Animals/Control Animals ([5]; 150 mg/Kg IP once daily x9): 197%
- Treated Group Survival Time ([5]; 150 mg/Kg IP once daily x9): 20.5 days
- Percent Treated Animals/Control Animals ([5]; 300 mg/Kg IP once daily x9): 213%
- Treated Group Survival Time ([5]; 300 mg/Kg IP once daily x9): 20.5 days
- Percent Treated Animals/Control Animals ([5]; 600 mg/Kg IP once daily x9): 211%
- Treated Group Survival Time ([5]; 600 mg/Kg IP once daily x9): 20.3 days
- Percent Treated Animals/Control Animals ([5]; 700 mg/Kg IP once daily x9): 211%
- Treated Group Survival Time ([5]; 700 mg/Kg IP once daily x9): 20.3 days
- Percent Treated Animals/Control Animals ([5]; 800 mg/Kg IP once daily x9): 221%
- Treated Group Survival Time ([5]; 800 mg/Kg IP once daily x9): 21.3 days
- effect on brain tumors ([5]; IP, once daily x9): reduction of the brain tumors
- number of deaths of test animals vs placebo control animals (virus; in vivo antiviral tests): equal to or exceeded the number of deaths of the placebo control animals
- in vivo antiviral activity (virus; in vivo): no useful in vivo antiviral activity; also recorded: negative
